Data from patent publication US20240374591A1, “CEREBLON BINDING COMPOUNDS, COMPOSITIONS THEREOF, AND METHODS OF TREATMENT THEREWITH” (CELGENE CORPORATION, priority 2021, published 2024).
Where a name gives a salt, the structure may show the parent alone.

Molecular target: T1, AR in VCaP cells (Homo sapiens, UniProt P10275)
T1 construct: endogenous in cells; host or cells: VCaP cells
T1 sequence (P10275 1-920): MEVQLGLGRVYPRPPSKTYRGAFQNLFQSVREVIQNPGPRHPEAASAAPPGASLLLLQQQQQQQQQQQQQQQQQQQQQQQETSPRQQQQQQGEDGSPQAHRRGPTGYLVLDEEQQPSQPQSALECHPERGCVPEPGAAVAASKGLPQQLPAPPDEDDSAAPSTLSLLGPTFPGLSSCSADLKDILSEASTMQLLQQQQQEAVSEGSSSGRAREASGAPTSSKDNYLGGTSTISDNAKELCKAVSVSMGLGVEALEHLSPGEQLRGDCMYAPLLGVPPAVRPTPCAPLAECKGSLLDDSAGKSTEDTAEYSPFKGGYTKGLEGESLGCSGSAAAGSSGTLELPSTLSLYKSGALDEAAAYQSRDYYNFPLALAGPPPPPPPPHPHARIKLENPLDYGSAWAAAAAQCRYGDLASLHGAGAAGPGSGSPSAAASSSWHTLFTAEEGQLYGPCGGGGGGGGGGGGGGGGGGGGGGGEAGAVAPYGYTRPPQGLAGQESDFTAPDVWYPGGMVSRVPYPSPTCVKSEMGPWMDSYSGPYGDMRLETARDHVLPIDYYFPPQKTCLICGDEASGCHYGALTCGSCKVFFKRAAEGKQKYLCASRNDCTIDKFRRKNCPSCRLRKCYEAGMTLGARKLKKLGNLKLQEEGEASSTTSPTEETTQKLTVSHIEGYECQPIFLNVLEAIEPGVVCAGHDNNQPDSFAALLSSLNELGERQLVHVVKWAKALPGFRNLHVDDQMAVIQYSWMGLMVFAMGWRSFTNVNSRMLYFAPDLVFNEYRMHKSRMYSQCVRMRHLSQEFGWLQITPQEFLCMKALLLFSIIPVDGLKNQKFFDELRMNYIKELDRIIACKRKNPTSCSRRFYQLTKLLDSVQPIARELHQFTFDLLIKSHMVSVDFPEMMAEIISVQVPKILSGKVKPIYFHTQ
Assay: VCAP AR Degradation Assay (AR ELISA, 24 h)
Type: cell-based
Details: for DC50: concentration giving 50% AR degradation vs DMSO control; for remaining activity at up to 5 µM: lowest measured AR level normalized to DMSO control, top concentration 5 μM, read-out: Y
Experimental: VCAP AR Degradation Assay. Test compounds were pre-dispensed into a Corning CellBind 96-well clear bottom plate (Cat #3300) using an acoustic dispenser to make a 10-point concentration series at 1:3 dilution for each compound. The final top concentration of each compound was 5 μM. DMSO at a final concentration of 0.1% was used as a control. VCaP cells cultured in DMEM with 8% fetal bovine serum (FBS) were seeded at 50K cells per well in a 200 μL volume into the compound plate and incubated at 37° C. in a CO2 incubator for 24 h. The medium was carefully removed from the cells and the plate was placed on ice. One hundred μL of ice-cold 1× cell lysis buffer from Cell Signaling Technologies (Cat #9803) was added to each well of the cells and the plate was incubated at 4° C. on a shaker for 1 h. Fifteen μL of cell lysate was used for AR ELISA detection using a PathScan Total Sandwich AR ELISA kit (Cell Signaling Technology, Cat #12580). AR levels in compound-treated wells were normalized to that of DMSO control and expressed as percent of control (PoC) (y). A Four Parameter Logistic Model (Sigmoidal Dose-Response Model) was used to determine the compound's DC50, and EC50, using the following equation: […]
The lowest measured AR level normalized to DMSO control in response to compound treatment, termed Y value, was used to characterize the compound-mediated AR degradation efficiency.

| Compound | DC50 [nM] | remaining activity at up to 5 µM [%] |
| --- | --- | --- |
| C[C@@H]1C[C@@H](CCO[C@H]2CC[C@H](N3C(=S)N(c4ccc(C#N)c(C(F)(F)F)c4)C(=O)C3(C)C)CC2)C[C@H](C)N1CC(=O)Nc1ccc(C2CCC(=O)NC2=O)nc1 (stereo partly drawn) [Cmpd 14, 2-((2R,4r,6S)-4-(2-((trans-4-(3-(4-Cyano-3-(trifluoromethyl)phenyl)-5,5-dimethyl-4-oxo-2-thioxoimidazolidin-1-yl)cyclohexyl)oxy)ethyl)-2,6-dimethylpiperidin-1-yl)-N-(6-(2,6-dioxopiperidin-3-yl)pyridin-3-yl)acetamide hydrochloride] | ≤ 5 | 20 to 30 |
| C[C@@H]1CN(CCCC[C@H]2CC[C@H](N3C(=S)N(c4ccc(C#N)c(C(F)(F)F)c4)C(=O)C3(C)C)CC2)C[C@H](C)N1CC(=O)Nc1ccc(N2CCC(=O)NC2=O)nc1 [Cmpd 15, 2-((2R,6S)-4-(4-((trans)-4-(3-(4-Cyano-3-(trifluoromethyl)phenyl)-5,5-dimethyl-4-oxo-2-thioxoimidazolidin-1-yl)cyclohexyl)butyl)-2,6-dimethylpiperazin-1-yl)-N-(6-(2,4-dioxotetrahydropyrimidin-1(2H)-yl)pyridin-3-yl)acetamide] | 100 to 10000 | 30 to 70 |
| C[C@@H]1CN(CCCC[C@H]2CC[C@H](N3C(=S)N(c4ccc(C#N)c(C(F)(F)F)c4)C(=O)C3(C)C)CC2)C[C@H](C)N1CC(=O)Nc1ccc(C2CCC(=O)NC2=O)nc1 (stereo partly drawn) [Cmpd 16, 2-((2R,6S)-4-(4-((trans)-4-(3-(4-Cyano-3-(trifluoromethyl)phenyl)-5,5-dimethyl-4-oxo-2-thioxoimidazolidin-1-yl)cyclohexyl)butyl)-2,6-dimethylpiperazin-1-yl)-N-(6-(2,6-dioxopiperidin-3-yl)pyridin-3-yl)acetamide] | ≤ 5 | 20 to 30 |
| C[C@@H]1C[C@H](CCO[C@H]2CC[C@H](N3C(=S)N(c4ccc(C#N)c(C(F)(F)F)c4)C(=O)C3(C)C)CC2)C[C@H](C)N1CC(=O)Nc1ccc(C2CCC(=O)NC2=O)nc1 (stereo partly drawn) [Cmpd 17, 2-((2R,4r,6S)-4-(2-(((trans)-4-(3-(4-Cyano-3-(trifluoromethyl)phenyl)-5,5-dimethyl-4-oxo-2-thioxoimidazolidin-1-yl)cyclohexyl)oxy)ethyl)-2,6-dimethylpiperidin-1-yl)-N-(6-(2,6-dioxopiperidin-3-yl)pyridin-3-yl)acetamide] | ≤ 5 | 20 to 30 |
| C[C@@H]1C[C@H](CCO[C@H]2CC[C@H](N3C(=S)N(c4cnc(C#N)c(C(F)(F)F)c4)C(=O)C3(C)C)CC2)C[C@H](C)N1CC(=O)Nc1ccc(C2CCC(=O)NC2=O)nc1 (stereo partly drawn) [Cmpd 18, 2-((2R,4r,6S)-4-(2-(((trans)-4-(3-(6-Cyano-5-(trifluoromethyl)pyridin-3-yl)-5,5-dimethyl-4-oxo-2-thioxoimidazolidin-1-yl)cyclohexyl)oxy)ethyl)-2,6-dimethylpiperidin-1-yl)-N-(6-(2,6-dioxopiperidin-3-yl)pyridin-3-yl)acetamide] | ≤ 5 | 0 to 20 |
| C[C@@H]1C[C@@H](CCO[C@H]2CC[C@H](N3C(=S)N(c4cnc(C#N)c(C(F)(F)F)c4)C(=O)C3(C)C)CC2)C[C@H](C)N1CC(=O)Nc1ccc(C2CCC(=O)NC2=O)nc1 (stereo partly drawn) [Cmpd 19, 2-((2R,4s,6S)-4-(2-(((trans)-4-(3-(6-Cyano-5-(trifluoromethyl)pyridin-3-yl)-5,5-dimethyl-4-oxo-2-thioxoimidazolidin-1-yl)cyclohexyl)oxy)ethyl)-2,6-dimethylpiperidin-1-yl)-N-(6-(2,6-dioxopiperidin-3-yl)pyridin-3-yl)acetamide] | ≤ 5 | 20 to 30 |
| C[C@@H]1C[C@H](OCCC[C@H]2CC[C@H](N3C(=S)N(c4ccc(C#N)c(C(F)(F)F)c4)C(=O)C3(C)C)CC2)C[C@H](C)N1CC(=O)Nc1ccc(C2CCC(=O)NC2=O)nc1 (stereo partly drawn) [Cmpd 20, 2-((2R,4r,6S)-4-(3-((trans)-4-(3-(4-Cyano-3-(trifluoromethyl)phenyl)-5,5-dimethyl-4-oxo-2-thioxoimidazolidin-1-yl)cyclohexyl)propoxy)-2,6-dimethylpiperidin-1-yl)-N-(6-(2,6-dioxopiperidin-3-yl)pyridin-3-yl)acetamide] | 5 to 10 | 20 to 30 |
| CC1(C)C(=O)N(c2cnc(C#N)c(C(F)(F)F)c2)C(=S)N1[C@H]1CC[C@H](CCCN2CCN(CC(=O)Nc3ccc(C4CCC(=O)NC4=O)nc3)[C@@H](C(F)(F)F)C2)CC1 (stereo partly drawn) [Cmpd 21, 2-((R)-4-(3-((trans)-4-(3-(6-Cyano-5-(trifluoromethyl)pyridin-3-yl)-5,5-dimethyl-4-oxo-2-thioxoimidazolidin-1-yl)cyclohexyl)propyl)-2-(trifluoromethyl)piperazin-1-yl)-N-(6-(2,6-dioxopiperidin-3-yl)pyridin-3-yl)acetamide] | ≤ 5 | 0 to 20 |
| CC1(C)C(=O)N(c2ccc(C#N)c(C(F)(F)F)c2)C(=S)N1[C@H]1CC[C@H](CCCN2CCN(CC(=O)Nc3ccc(C4CCC(=O)NC4=O)nc3)[C@@H](C(F)(F)F)C2)CC1 (stereo partly drawn) [Cmpd 22, 2-((R)-4-(3-((trans)-4-(3-(4-Cyano-3-(trifluoromethyl)phenyl)-5,5-dimethyl-4-oxo-2-thioxoimidazolidin-1-yl)cyclohexyl)propyl)-2-(trifluoromethyl)piperazin-1-yl)-N-(6-(2,6-dioxopiperidin-3-yl)pyridin-3-yl)acetamide] | 10 to 100 | 20 to 30 |
| CC1(C)C(=O)N(c2cnc(C#N)c(C(F)(F)F)c2)C(=S)N1[C@H]1CC[C@H](OCCCN2CCN(CC(=O)Nc3ccc(C4CCC(=O)NC4=O)nc3)[C@@H](C(F)(F)F)C2)CC1 (stereo partly drawn) [Cmpd 23, 2-((R)-4-(3-(((trans)-4-(3-(6-Cyano-5-(trifluoromethyl)pyridin-3-yl)-5,5-dimethyl-4-oxo-2-thioxoimidazolidin-1-yl)cyclohexyl)oxy)propyl)-2-(trifluoromethyl)piperazin-1-yl)-N-(6-(2,6-dioxopiperidin-3-yl)pyridin-3-yl)acetamide] | ≤ 5 | 0 to 20 |
| CC1(C)C(=O)N(c2cnc(C#N)c(C(F)(F)F)c2)C(=S)N1[C@H]1CC[C@H](OCCN2CCN(CC(=O)Nc3ccc(C4CCC(=O)NC4=O)nc3)[C@@H](C(F)(F)F)C2)CC1 (stereo partly drawn) [Cmpd 24, 2-((R)-4-(2-(((trans)-4-(3-(6-Cyano-5-(trifluoromethyl)pyridin-3-yl)-5,5-dimethyl-4-oxo-2-thioxoimidazolidin-1-yl)cyclohexyl)oxy)ethyl)-2-(trifluoromethyl)piperazin-1-yl)-N-(6-(2,6-dioxopiperidin-3-yl)pyridin-3-yl)acetamide] | ≤ 5 | 20 to 30 |
| CC1(C)C(=O)N(c2ccc(C#N)c(C(F)(F)F)c2)C(=S)N1[C@H]1CC[C@H](OCCCN2CCN(CC(=O)Nc3ccc(C4CCC(=O)NC4=O)nc3)[C@@H](C(F)(F)F)C2)CC1 (stereo partly drawn) [Cmpd 25, 2-((R)-4-(3-(((trans)-4-(3-(4-Cyano-3-(trifluoromethyl)phenyl)-5,5-dimethyl-4-oxo-2-thioxoimidazolidin-1-yl)cyclohexyl)oxy)propyl)-2-(trifluoromethyl)piperazin-1-yl)-N-(6-(2,6-dioxopiperidin-3-yl)pyridin-3-yl)acetamide] | ≤ 5 | 20 to 30 |
